Test results taken from patent US8664238B2, “Indenoisoquinolinone derivatives, manufacturing method and medical use thereof” (China Pharmaceutical University, priority 2009, dated 2014).

Tested on: Human breast cancer cells MCF-7
Assay: Proliferation of MCF-7 breast cancer cells (MTT detection method)
Format: cell-based
Conditions: MCF-7 cells, 48 h incubation with drug, read-out: IC50, inhibition on the proliferation of MCF-7 breast cancer cells
Protocol: The method described in Journal of Medicinal Chemistry. 1997. 40. 1407-1416 has been used and slightly modified. Human breast cancer cells MCF-7, purchased from Nanjing Keygen Biotechnology Inc. MCF-7 cells were incubated in RPMI1640 medium (containing 10% calf serum, 100 U/ml of penicillin and 100 μg/ml of streptomycin) in a 37° C. incubator with 5% CO2. The medium was replaced once about two days and cells were subcultured once every 3-4 days. In the subculturing, the old medium was discarded and the culture was washed twice with D-hanks (for washing off the phenol red in the medium to eliminate the influence of phenol red on the digestion effect of trypsin). Then, a small amount of 0.25% trypsin (25 mg trypsin, 100 ml D-hanks) was added and the contents were paved in the bottle bottom smoothly. […] Trypsin was discarded and the cells were washed with D-hanks, then fresh medium was added and mixed by blowing. The cultures were put into new culture flasks and cultured continuously. After cell count, a small volume of cell suspension was taken and mixed with 0.4% trypan blue in the same volume by blowing with a straw. A little mixture (15 μl-20 μl) was taken and dropped into the interspace between the counting plate and the coverslip without bubbles. […] Dead cells can be stained by trypan blue, while living cells cannot. The counting plate was moved so as to see the counting squares, then unstained cells in four diagonal grids were counted. The cells counted include those on the right line and the top line but not those on the bottom line and the left line. The number of cells/ml=the number of cells in 25% grid×10^4. […] The control group was that in which the anticancer drug was replaced with the same volume of medium and the blank group is 200 μl medium. After incubating for 48 h, 5 mg/ml MTT was added in 20 μl per well and the cultures were further incubated for 4 h. Then, the liquid was suck out carefully and 150 μl of DMSO was added per well. OD values of all wells were measured in 570 nm and the inhibition rate on the cell proliferation and values of IC50 were calculated.

IC50 [µM]	Structure (SMILES)
5.82	CN1CCN(CCOc2ccc(-n3c4c(c5ccccc5c3=O)C(=O)c3ccccc3-4)cc2)CC1 [Ig, 6-(4-(2-(4-methylpiperazinyl)ethoxy)phenyl)-5H-indeno[1,2-c]isoquinoline-5,11(6H)-diketone]
10.9	O=C1c2ccccc2-c2c1c1ccccc1c(=O)n2-c1ccc(OCCCN2CCCCC2)cc1 [Ib, 6-(4-(3-piperidinylpropoxy)phenyl)-5H-indeno[1,2-c]isoquinoline-5,11(6H)-diketone]
5.89	CN1CCN(CCCOc2ccc(-n3c4c(c5ccccc5c3=O)C(=O)c3ccccc3-4)cc2)CC1 [Ih, 6-(4-(3-(4-methylpiperazinyl)propoxy)phenyl)-5H-indeno[1,2-c]isoquinoline-5,11(6H)-diketone]
11.3	O=C1c2ccccc2-c2c1c1ccccc1c(=O)n2-c1ccc(OCCN2CCCC2)cc1 [Ii, 6-(4-(2-pyrrolidinylethoxy)phenyl)-5H-indeno[1,2-c]isoquinoline-5,11(6H)-diketone]
24.7	O=C1c2ccccc2-c2c1c1ccccc1c(=O)n2-c1ccc(OCCCN2CCCC2)cc1 [Ij, 6-(4-(3-pyrrolidinylpropoxy)phenyl)-5H-indeno[1,2-c]isoquinoline-5,11(6H)-diketone]
27.9	CN(C)CCCOc1ccc(-n2c3c(c4ccccc4c2=O)C(=O)c2ccccc2-3)cc1 [Id, 6-(4-(3-dimethylaminopropoxy)phenyl)-5H-indeno[1,2-c]isoquinoline-5,11(6H)-diketone]
8.52	CCN(CC)CCCOc1ccc(-n2c3c(c4ccccc4c2=O)C(=O)c2ccccc2-3)cc1 [If, 6-(4-(3-diethylaminopropoxy)phenyl)-5H-indeno[1,2-c]isoquinoline-5,11(6H)-diketone]
79.9	CC(C)N(CCOc1ccc(-n2c3c(c4ccccc4c2=O)C(=O)c2ccccc2-3)cc1)C(C)C [Ik, 6-(4-(2-diisopropylaminoethoxy)phenyl)-5H-indeno[1,2-c]isoquinoline-5,11(6H)-diketone]
9.55	O=C1c2ccccc2-c2c1c1ccccc1c(=O)n2-c1ccc(OCCN2CCCCC2)cc1 [Ia, 6-(4-(2-piperidinylethoxy)phenyl)-5H-indeno[1,2-c]isoquinoline-5,11(6H)-diketone]
2.13	CN(C)CCOc1ccc(-n2c3c(c4ccccc4c2=O)C(=O)c2ccccc2-3)cc1 [Ic, 6-(4-(2-dimethylaminoethoxy)phenyl)-5H-indeno[1,2-c]isoquinoline-5,11(6H)-diketone]
7.8	CCN(CC)CCOc1ccc(-n2c3c(c4ccccc4c2=O)C(=O)c2ccccc2-3)cc1 [Ie, 6-(4-(2-diethylaminoethoxy)phenyl)-5H-indeno[1,2-c]isoquinoline-5,11(6H)-diketone]

Tested on: H460 human lung cancer cells
Assay: Proliferation experiment of H460 human lung cancer cells
Format: cell-based
Conditions: not given
Protocol: Meanwhile, the proliferation experiment of H460 human lung cancer cells was also conducted.

IC50 [nM]	Structure (SMILES)
630	CCN(CC)CCCOc1ccc(-n2c3c(c4ccccc4c2=O)C(=O)c2ccccc2-3)cc1 [If, 6-(4-(3-diethylaminopropoxy)phenyl)-5H-indeno[1,2-c]isoquinoline-5,11(6H)-diketone]
